pEC50: −log10 of the molar value.
Key:
U937 cells [1] = test: Inhibition rate of compound (1 μM) on necroptosis of U937 cells (TSZ-induced, CellTiter-Glo); format: cell-based; conditions: TSZ (hTNF-α, SM-164, Z-VAD-FMK) 20 hours
How it was run: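 Percent inhibition comes from ATP luminescence (CellTiter-Glo), referenced to wells without TSZ and wells with TSZ alone. The compound was added to U937 cells 15 min ahead of a TNF-α/SM-164/Z-VAD-FMK mix, followed by 20 h culture at 37° C, 5% CO2.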

U937 cells [2] = test: EC50 of necroptosis inhibition in U937 cells (TSZ-induced, CellTiter-Glo); format: cell-based; conditions: Homo sapiens, U-937; TSZ (hTNF-α, SM-164, Z-VAD-FMK) 20 hours; 10 concentration points; read-out: EC50 intervals of necroptosis inhibition in U937 cells
How it was run: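 Luminescent ATP readout (CellTiter-Glo) after 20 h gave viability of TSZ-challenged U937 cells; compounds were added 15 min ahead of TNF-α/SM-164/Z-VAD-FMK. EC50 derived by variable-slope nonlinear regression of inhibition relative to no-TSZ and TSZ-alone controls.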

RIPK1 kinase = target: T1, RIPK1 kinase (Homo sapiens, UniProt Q13546); test: In vitro RIPK1 kinase activity assay (ADP-Glo), inhibition by compounds at 1 μM; format: biochemical; conditions: compound 1 μM; ATP 10 μM; MBP substrate 100 μg/mL; read-out: RIPK1 kinase activity inhibition rate range
T1 construct: purchased Promega VA7593
T1 sequence (Q13546 1-671): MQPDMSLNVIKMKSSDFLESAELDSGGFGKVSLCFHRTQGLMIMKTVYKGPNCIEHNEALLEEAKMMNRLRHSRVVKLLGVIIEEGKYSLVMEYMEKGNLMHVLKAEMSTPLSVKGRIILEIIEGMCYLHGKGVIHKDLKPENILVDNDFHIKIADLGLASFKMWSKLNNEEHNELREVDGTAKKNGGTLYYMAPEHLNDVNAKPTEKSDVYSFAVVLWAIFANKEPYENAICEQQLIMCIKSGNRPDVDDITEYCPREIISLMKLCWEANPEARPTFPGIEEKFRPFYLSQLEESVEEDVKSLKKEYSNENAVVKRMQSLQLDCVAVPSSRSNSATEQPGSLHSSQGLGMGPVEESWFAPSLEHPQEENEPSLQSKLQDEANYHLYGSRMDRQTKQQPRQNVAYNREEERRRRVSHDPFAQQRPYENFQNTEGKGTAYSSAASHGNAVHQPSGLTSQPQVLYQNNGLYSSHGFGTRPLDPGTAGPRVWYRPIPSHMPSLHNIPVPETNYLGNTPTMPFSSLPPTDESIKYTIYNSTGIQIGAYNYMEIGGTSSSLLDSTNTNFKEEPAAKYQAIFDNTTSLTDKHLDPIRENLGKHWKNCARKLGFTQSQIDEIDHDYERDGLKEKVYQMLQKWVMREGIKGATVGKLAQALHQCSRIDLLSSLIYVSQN
How it was run: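 Read by ADP-Glo chemiluminescence as percent inhibition: RIPK1 kinase, 15-min room-temperature compound preincubation, then 1-h reaction with MBP (100 μg/mL final) and ATP (10 μM final). Enzyme level was set by titration.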

| inhibition at 1 µM (RIPK1 kinase) [%] | SMILES | Inhibition rate range of compounds (1 μM) on U937 cell necroptosis (U937 cells [1]) | pEC50 (U937 cells [2]) |
| --- | --- | --- | --- |
| 50 to 74 | CN1C(=O)[C@H](NC(=O)C(=O)NCCc2ccccc2)COc2ccc(Br)cc21 [Example 71, (R)—N^1-(7-bromo-5-methyl-4-oxo-2,3,4,5-tetrahydrobenzo[b][1,4]oxazepin-3-yl)-N^2-phenethyloxalamide] | B (B: 50-89%) | 5.70 to 6.30 |
| ≥ 75 | CN1C(=O)[C@@H](NC(=O)C(=O)NCCc2ccccc2)COc2cc(Br)ccc21 [Example 3, (S)—N^1-(8-bromo-5-methyl-4-oxo-2,3,4,5-tetrahydrobenzo[b][1,4]oxazepin-3-yl)-N^2-phenethyloxalamide] | A (A: ≥90%) | 5.70 to 6.30 |
| 50 to 74 | CN1C(=O)[C@@H](NC(=O)C(=O)NCCc2ccccc2)COc2ccc(C#CCN3CCNCC3)cc21 [Example 49, (S)—N^1-(5-methyl-4-oxo-7-(3-(piperazin-1-yl)prop-1-yn-1-yl)-2,3,4,5-tetrahydrobenzo[b][1,4]oxazepin-3-yl)-N^2-phenethyloxalamide] | A (A: ≥90%) | 6.30 to 7.00 |
| 50 to 74 | C[C@@H](NC(=O)C(=O)N[C@H]1COc2ccc(C#CCn3ccnc3)cc2N(C)C1=O)c1ccccc1 [Example 134, N^1-((S)-7-(3-(1H-imidazol-1-yl)prop-1-yn-1-yl)-5-methyl-4-oxo-2,3,4,5-tetrahydrobenzo[b][1,4]oxazepin-3-yl)-N^2-((R)-1-phenylethyl)oxalamide] | A (A: ≥90%) | > 7.00 |
| ≥ 75 | CN1C(=O)[C@@H](NC(=O)C(=O)NCCc2ccccc2)COc2ccc(C#Cc3ccncc3)cc21 [Example 12, (S)-N^1-(5-methyl-4-oxo-7-(pyridin-4-ylethynyl)-2,3,4,5-tetrahydrobenzo[b][1,4]oxazepin-3-yl)-N^2-phenethyloxalamide] | A (A: ≥90%) | > 7.00 |
| ≥ 75 | CC(=O)N1CCN(CC#Cc2ccc3c(c2)N(C)C(=O)[C@@H](NC(=O)C(=O)N[C@H](C)c2ccccc2)CO3)CC1 [Example 143, N^1-((S)-7-(3-(4-acetylpiperazin-1-yl)prop-1-yn-1-yl)-5-methyl-4-oxo-2,3,4,5-tetrahydrobenzo[b][1,4]oxazepin-3-yl)-N^2-((R)-1-phenylethyl)oxalamide] | A (A: ≥90%) | > 7.00 |
| 25 to 49 | C[C@@H](NC(=O)C(=O)N[C@H]1COc2ccc(C#CC3CCN(C)CC3)cc2N(C)C1=O)c1ccccc1 [Example 136, N^1-((S)-5-methyl-7-((1-methylpiperidin-4-yl)ethynyl)-4-oxo-2,3,4,5-tetrahydrobenzo[b][1,4]oxazepin-3-yl)-N^2-((R)-1-phenylethyl)oxalamide] | A (A: ≥90%) | > 7.00 |
| ≥ 75 | CN1CCC(C#Cc2ccc3c(c2)N(C)C(=O)[C@@H](NC(=O)C(=O)NCCc2ccccc2)CO3)CC1 [Example 73, (S)—N^1-(5-methyl-7-((1-methylpiperidin-4-yl)ethynyl)-4-oxo-2,3,4,5-tetrahydrobenzo[b][1,4]oxazepin-3-yl)-N^2-phenethyloxalamide] | A (A: ≥90%) | > 7.00 |
| 25 to 49 | CN1C(=O)[C@@H](NC(=O)C(=O)NCCc2cccc(F)c2)COc2ccc(C#CCN3CCC(=O)C3)cc21 [Example 119, (S)—N^1-(3-fluorophenethyl)-N^2-(5-methyl-4-oxo-7-(3-(3-oxopyrrolidin-1-yl)prop-1-yn-1-yl)-2,3,4,5-tetrahydrobenzo[b][1,4]oxazepin-3-yl)oxalamide] | A (A: ≥90%) | > 7.00 |

From patent US20250368633A1, “AZEPINE FUSED RING COMPOUND AS RIPK1 INHIBITOR AND USE THEREOF” (ARTIVILA BIOPHARMA, priority 2022, published 2025)
